# Experimental data taken from patent US11634389B2 (priority 2018, dated 2023).
# Test system: Monilinia fructicola isolate
# Test: Radial mycelial growth on SDHI-amended PDA, Monilinia fructicola isolate (FIG. 4)
# Format: cell-based
# Conditions: versus positive control fluxapyroxad
# Method: FIG. 4 depicts the fungicidal performance of a compound according to the disclosure (“1831”) against Monilinia fructicola isolate against a blank control, as compared to fluxapyroxad, a commercially available fungicide (“fluxa”).
# The inhibitory effects of these SDHI compounds were evaluated against the various pathogenic isolates grown on half-strength potato dextrose agar (PDA) amended with a given SDHI. SDHIs were formulated as 10,000 ppm stocks in DMSO. Inoculated media were prepared using a ratio of 12 g potato dextrose broth powder to 15 g agar to 1 L of deionized water. Upon autoclaving and cooling to 55° C., the media were inoculated with the SDHI compound of interest (1 mL of 10,000 ppm stock in 1 L media) then poured into plates. This method represented a 10 ppm trial for the SDHI compound. Mycelial plugs were cut from the leading growth of active fungal colonies (supported on full PDA media) and placed mycelia-down in the center of a plate. After an appropriate number of days (3-14 days, depending on pathogen), the radial growth was measured (average of three plates), and reported as the radial mycelial growth or as radial mycelial growth relative to a control. An analogous procedure was employed to determine the EC50 value by varying the concentration of the initial SDHI compound DMSO stock. […]
smiles,measurement,value
Cn1ncc(C(=O)NC23CCC(c4ccccc42)C3(C)C)c1Cl (stereo not shown) [compound 1831],radial growth relative to that seen with fluxapyroxad,about half
